Results published in PubChem BioAssay AID2060489 (Molecular Pharmacology Branch, DTP, NCI, 2025).
pIC50: −log10 of the molar value. Values joined by “and” are separate entries in the source; they are usually repeats but may differ in a detail not shown here. Equal values may be shown once.

Tested on: 922993-354-T-J3-PDC complex spheroids, viability
Experiment: Anticancer human tumor 922993-354-T-J3-PDC patient-derived endometrial carcinoma cell line growth inhibition [GQUAD]
Conditions: for viability, T/C: stronger effect = lower value; active = viability on the fitted dose curve at most 10% of control; inactive = the rest
Text: DNA G-quadruplex Stabilizer Agents in Combinations in Complex Spheroids
A high-throughput screen of multi-cell type tumor spheroids was designed to identify active combinations of DNA G-quadruplex stabilizer agents and targeted small molecules. Complex spheroids include a stromal component modeled by human endothelial cells (HUVEC) and fibroblasts modeled by human mesenchymal stem cells (MSCs). The concentration ranges selected for each drug and investigational agent were based upon clinically achievable concentrations if the clinical Cmax of the agent was known.
Compounds. The drugs and investigational agents: pidnarulex (CX-5461; NSC782164), APTO-253 (NSC789042), BRACO-19 (NSC847499), peposertib (NSC802822), ceralasertib (NSC780249), elimusertib (NSC800525), camonsertib (NSC841442), AZD-1390 (NSC803789), olaparib (NSC753686), talazoparib (NSC767125), ART-558 (NSC835418), sotorasib (NSC818433), MRTX-1133 (NSC836407), SN-38 (NSC673596), topotecan (NSC609699), etoposide (NSC141540), doxorubicin (NSC123127), gemcitabine (NSC613327), 5-fluorouracil (NSC19893), paclitaxel (NSC125973), vemurafenib (NSC761431), panobinostat (NSC761190), R-306465 (JNJ-16241199; NSC773264), adavosertib (NSC754352), TP-3654 (NSC805149), carboplatin (NSC241240), KSQ-4279 (NSC840948), and staurosporine (NSC755774) were obtained from the National Cancer Institute (NCI) Developmental Therapeutics Program Chemical Repository (34). The FDA-approved anticancer drug set is available from the NCI Developmental Therapeutics Program. […] The stock solutions were prepared in dimethyl sulfoxide (DMSO, Sigma-Aldrich, St. Louis, MO, cat. D2650) at 800-fold the tested concentration and stored at -70 degrees C prior to their use. All drugs and investigational agents were tested over a range starting from a high concentration at or near the clinical Cmax and decreasing in half-log increments. If the clinical Cmax for an agent had not been determined, the highest concentration tested was 10 microM.
2.3 Cell Culture. All cells were maintained in an incubator at 37 degrees C and 5% CO2 with 95% humidity. The PDC lines were cultured according to standard operating procedures established by the NCI PDMR. All PDCs were thawed and cultured in Matrigel-coated flasks prepared with a working solution of 1X Ham's F-12 nutrient mix, without supplementation (Invitrogen, cat. 11765054), 100 U/mL penicillin-streptomycin (Invitrogen, cat. 15140122), and 2.5% Matrigel (Corning Inc., cat. 354248) for the first three passages. The 857933-349-R-J2-PDC line was cultured in 6C/Colon 1B media, which includes advanced DMEM/F-12 (Thermo Fisher Scientific, cat. 12634028), 10 mM HEPES (Thermo Fisher Scientific, cat. 15630080), 1X GlutaMAX supplement (Thermo Fisher Scientific, cat. 35050061), 0.1 mg/mL primocin (InvivoGen, cat. ant-pm-2), 10% defined fetal bovine serum, heat inactivated (HyClone Laboratories Inc., cat. SH30070.03HI), 50% L-WRN conditioned media (ATCC, cat. CRL-3276), 1.25 mM N-Acetyl-L-cysteine (Sigma-Aldrich, cat. A9165), 10 mM nicotinamide (Sigma-Aldrich, cat. N0636), 1X B-27 supplement (Thermo Fisher Scientific, cat. 17504044), 1X N-2 supplement (Thermo Fisher Scientific, cat. 17502048), 10 microM Y-27632 dihydrochloride (Tocris Bioscience, cat. 1254), and 50 ng/mL human EGF recombinant protein (Thermo Fisher Scientific, cat. PHG0311). The 485176-168-R4-J1-PDC line was cultured in Panc media, which includes all 6C/Colon 1B media components plus 100 ng/mL human FGF-10 (Thermo Fisher Scientific, cat. 100-26), 500 nM SB-431542 (Selleckchem, cat. S1067), and gastrin (Tocris, cat. 3006).
[…]
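Also: spheroids exposed to compounds for seven days.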

CC[C@@]1(O)C(=O)OCc2c1cc1n(c2=O)Cc2cc3c(CN(C)C)c(O)ccc3nc2-1 + Cc1cnc(CNC(=O)c2c(=O)c3ccc(N4CCCN(C)CC4)nc3n3c2sc2ccccc23)cn1
> 9.00: pIC50 (curve of first compound, second compound 10 µM)
7.09: pIC50 (curve of first compound, second compound 1 µM)
8.41: pIC50 (curve of first compound, second compound 0.316 µM)
< 6.50: pIC50 (curve of first compound, second compound 0.0316 µM)
7.28: pIC50 (curve of first compound, second compound 3.16 µM)
inactive: viability, T/C (second compound 0.0316 µM, first compound 0.000999 µM) 94.7% | viability, T/C (second compound 0.0316 µM, first compound 0.00316 µM) 86.6% | viability, T/C (second compound 0.0316 µM, first compound 0.00999 µM) 84% | viability, T/C (second compound 0.0316 µM, first compound 0.0316 µM) 86.9% | viability, T/C (second compound 0.0316 µM, first compound 0.0999 µM) 83.2% | viability, T/C (second compound 0.0316 µM, first compound 0.316 µM) 54.6% | viability, T/C (second compound 0.1 µM, first compound 0.000999 µM) 60.6% | viability, T/C (second compound 0.1 µM, first compound 0.00316 µM) 74.2% | viability, T/C (second compound 0.1 µM, first compound 0.00999 µM) 55.1% | viability, T/C (second compound 0.1 µM, first compound 0.0316 µM) 61% | viability, T/C (second compound 0.1 µM, first compound 0.0999 µM) 50.4% | viability, T/C (second compound 0.1 µM, first compound 0.316 µM) 42.7% | viability, T/C (second compound 0.316 µM, first compound 0.000999 µM) 58.6% | viability, T/C (second compound 0.316 µM, first compound 0.00316 µM) 53.5% | viability, T/C (second compound 0.316 µM, first compound 0.00999 µM) 46.7% | viability, T/C (second compound 0.316 µM, first compound 0.0316 µM) 37.5% | viability, T/C (second compound 0.316 µM, first compound 0.0999 µM) 41.1% | viability, T/C (second compound 0.316 µM, first compound 0.316 µM) 40.3% | viability, T/C (second compound 1 µM, first compound 0.000999 µM) 42.2% | viability, T/C (second compound 1 µM, first compound 0.00316 µM) 58.5% | viability, T/C (second compound 1 µM, first compound 0.00999 µM) 39.6% | viability, T/C (second compound 1 µM, first compound 0.0316 µM) 62.3% | viability, T/C (second compound 1 µM, first compound 0.0999 µM) 49.1% | viability, T/C (second compound 1 µM, first compound 0.316 µM) 36.2% | viability, T/C (second compound 3.16 µM, first compound 0.000999 µM) 52.1% | viability, T/C (second compound 3.16 µM, first compound 0.00316 µM) 54.9% | viability, T/C (second compound 3.16 µM, first compound 0.00999 µM) 63.4% | viability, T/C (second compound 3.16 µM, first compound 0.0316 µM) 42.5% | viability, T/C (second compound 3.16 µM, first compound 0.0999 µM) 49.2% | viability, T/C (second compound 3.16 µM, first compound 0.316 µM) 45.3% | viability, T/C (second compound 10 µM, first compound 0.000999 µM) 45.5% | viability, T/C (second compound 10 µM, first compound 0.00316 µM) 36.3% | viability, T/C (second compound 10 µM, first compound 0.00999 µM) 43.3% | viability, T/C (second compound 10 µM, first compound 0.0316 µM) 44.1% | viability, T/C (second compound 10 µM, first compound 0.0999 µM) 46.2% | viability, T/C (second compound 10 µM, first compound 0.316 µM) 47.5%
6.90: pIC50 (curve of first compound, second compound 0.1 µM)

C=CCn1c(=O)c2cnc(Nc3ccc(N4CCN(C)CC4)cc3)nc2n1-c1cccc(C(C)(C)O)n1
inactive: viability, T/C (compound 0.0316 µM) 79.8% and 93.2% and 78.9% | viability, T/C (compound 0.1 µM) 83.2% and 85.1% and 115% | viability, T/C (compound 0.316 µM) 107% and 109% and 113% | viability, T/C (compound 1 µM) 97.1% and 94.7% and 90.2% | viability, T/C (compound 3.16 µM) 66.1% and 73.2% and 82.1% | viability, T/C (compound 10 µM) 14.4% and 13.4% and 27.5%
5.34 and 5.31 and 5.21: pIC50 (curve of compound)

C#Cc1c(F)ccc2cc(O)cc(-c3ncc4c(N5CC6CCC(C5)N6)nc(OCC56CCCN5CC(F)C6)nc4c3F)c12 (stereo not drawn)
< 5.00: pIC50 (curve of compound)
inactive: viability, T/C (compound 0.0316 µM) 84.5% and 92.3% and 99.3% | viability, T/C (compound 0.1 µM) 82.8% and 84% and 92.6% | viability, T/C (compound 0.316 µM) 89.6% and 103% and 84.7% | viability, T/C (compound 1 µM) 92.7% and 82.5% and 106% | viability, T/C (compound 3.16 µM) 76.5% and 96.3% and 94.4% | viability, T/C (compound 10 µM) 96.1% and 82.3% and 91.5%

CC(C)(O)C1CCC(Nc2ccc3ncc(-c4cccc(C(F)(F)F)c4)n3n2)CC1 (stereo not drawn)
inactive: viability, T/C (compound 0.0316 µM) 106% and 88.2% and 93.2% | viability, T/C (compound 0.1 µM) 81% and 82.6% and 81.6% | viability, T/C (compound 0.316 µM) 89.6% and 84.6% and 88.7% | viability, T/C (compound 1 µM) 82.9% and 101% and 90.8% | viability, T/C (compound 3.16 µM) 78.8% and 68.7% and 81.9% | viability, T/C (compound 10 µM) 79.6% and 68% and 98.6%
< 5.00: pIC50 (curve of compound)
